Source: article PMC12598616, “Design and optimization of caspase-1-responsive fluorescent probes for pyroptosis imaging and anti-pyroptosis drug screening” (Chemical Science, 2025)

Legend:
[1] = system: Cas-1 in primary chondrocytes; assay: Intracellular imaging in primary chondrocytes; format: cell-based; conditions: H2O2 2 mM 30, 60, 90 min; FPy1 5 μM 1 h
Experimental: The decline in chondrocyte function plays a crucial role in the pathogenesis of OA. Inflammasome-mediated chondrocyte pyroptosis has been closely associated with matrix degradation and cartilage degeneration in OA.[38] To model OA in vitro, primary chondrocytes were stimulated with H2O2 (2 mM) for different durations, followed by staining with FPy1 (5 μM) and fluorescence imaging to monitor the progression of pyroptosis under oxidative stress. […] To better mimic the in vivo pathological features of OA, primary chondrocytes were also cultured as three-dimensional spheroids and stimulated with H2O2. […] Furthermore, we evaluated the capability of FPy1 to monitor pyroptosis progression at different stages of OA in a mouse model. […] The pathological manifestations in the corresponding tissues became more pronounced with longer modeling periods, consistent with the fluorescence imaging results obtained using FPy1. […]
Chondrocytes were isolated from articular cartilage and resuspended in 1mL DMEM/F12 medium containing 10 μM ITS-A. A total of […] were counted and transferred into centrifuge tubes. […]
The chondrocytes or 3D cell spheroids were seeded in dishes and cultured overnight. […] Fluorescence imaging was then performed with an excitation of 514 nm, and signals were […]

[2] = system: Cas-1 in THP-1 cells; assay: Imaging and flow cytometry in Cas-1 siRNA knockdown THP-1 cells; format: cell-based; conditions: caspase-1 siRNA, LPS 1 μg/mL and Nig 10 μM
Experimental: Cytotoxicity assay (CCK-8)
The cytotoxicity of FPy1 and YPy1 to THP-1 was evaluated by cell counting kit-8 (CCK-8). Briefly, the THP-1 cells were seeded in 96-well plates (5000 cells/well) and cultured at 37 °C for 24 hours. Various concentrations of FPy1 or YPy1 (0, 2.5, 5, 10, 20, 30, 40, 50 μM) in RPMI 1640 medium were added, and the cells were kept incubation for 12 hours. Then, the cells were washed with PBS and incubated in the 100 μL fresh medium with 10 μL CCK8 dye for an additional 2 hours. The absorbance was measured at 450 nm using a Tecan Infinite M1000 Multi-function microplate reader, and cell viability was calculated using the formula:
Cell viability (%) = [(OD test-ODblank)/(ODcontrol-ODblank)] ×100%
Intracellular imaging with FPy1 in THP-1 cells
THP-1 cells were seeded in dishes and cultured overnight. […] The fluorescence imaging was performed under the excitation at 514 nm with signal collection in the range […]
for 4 hours, the cells were further treated with Nig (10 μM) for 2 hours. […] The distribution of FPy1 was analyzed by collecting organelle-specific dye fluorescence at 495-525 nm with 488 nm excitation, while simultaneously detecting FPy1 fluorescence at 530-610 nm with 514 nm excitation. […]
Nucleus pulposus cells were isolated from discs and resuspended in 1mL DMEM/F12 medium containing 10 μM ITS-A. A total of […] were counted and transferred into centrifuge tubes. […]

–FLTDG– [FPy1, RhoB donor, hNR quencher]
intracellular fluorescence intensity in primary chondrocytes [1]: increased with prolonged H2O2 stimulation | fluorescence intensity in Si-Casp1 group (flow cytometry) [2]: lower than that in the Si-Scramble group | intracellular fluorescence intensity in Si-Casp1 group (confocal) ([2]; FPy1 5 μM): significantly lower than that in the Si-Scramble group
